US10183055B2, “Ang-(1-7) derivative oligopeptides for the treatment of pain and other indications” (ARIZONA BOARD OF REGENTS ON BEHALF OF THE UNIVERSITY OF …, priority 2014, dated 2019)
Read-outs that look alike come from different tables or passages of the source. Residues, ends and D or L forms follow the SMILES beside them. *: point of attachment. X2 = OC[C@H]1O[C@@H](O[C@H]2[C@H](O)[C@@H](O)[C@H](*)O[C@@H]2CO)[C@H](O)[C@@H](O)[C@H]1O; X1 = OC[C@H]1OC(*)[C@H](O)[C@@H](O)[C@@H]1O

Experiments:
[1] = system: human umbilical vascular endothelial cells (HUVEC); assay: xCELLigence RTCA cell activation (cell impedance); format: cell-based
Source text: Cell culture. To isolate primary hippocampal CA1 neuronal cells, whole brain was removed from neonatal rat pups (1-2 day old) and the cortices dissected away. The hippocampus was isolated and the CA1 field was excised and placed in buffer. After gentle disruption in digestion buffer, the cells were counted, placed in culture media, and plated in a 96-well format coated with poly-d-lysine. At the time of plating, cells were approximately at 50% density and were allowed to culture to 70-80% density before starting the assay. Commercially available HUVEC (Life Technologies/Thermo Fisher) was thawed and plated (5000-10,000 cells/well) in a 96-well format coated with gelatin. HUVEC cells were allowed to culture overnight before starting the assay.
Cell Activation: The xCELLigence system Real-Time Cell Analyzer (RTCA), developed by Roche Applied Science, uses microelectronic biosensor technology to do dynamic, real-time, label-free, and non-invasive analysis of cellular events including G-protein receptor activation of cells. The RTCA analysis was utilized to measure the potency and relative ability of oligopeptides of the invention and native Ang-(1-7) to activate human umbilical vascular endothelial cells (HUVEC) in culture. Following uniform cellular adherence based on a linear increase in cell impedance (CI), HUVECs were treated with Ang-(1-7) and oligopeptides of the invention. Each trace of the CI over time in FIG. 1 represents the average of 4 wells normalized to CI at the time of compound addition.

[2] = system: human umbilical vascular endothelial cells (HUVEC); assay: NO production assay (DAF-FM fluorescence, microplate reader); format: cell-based; settings: 5 minutes exposure
Method: NO production assay. As a screen for mechanisms of action of oligopeptides of the invention, the ability to increase NO production of three oligopeptides of the invention (PN-A3, PN-A4 and PN-A5) were characterized and compared to native Ang-(1-7). Human umbilical vascular endothelial cells (HUVEC) culture plates received fluorescence reaction buffer (0.2 M phosphate buffer, pH 7, 1 mM EDTA, 0.1% glucose) containing diaminofluorescein-FM diacetate (DAF-FM, 1 μM) to measure real-time NO production. Time-resolved (10 minutes) fluorescent intensity was detected using a BioTek Synergy 2 microplate reader with excitation at 485 nm and emission at 535 nm. DAF-FM is a sensitive flourometric derivative for the selective detection of NO in live cells.
Values were normalized to control fluorescence.

naïve mice = assay: Rotarod performance test; format: in vivo; settings: spinal 0.3 pmol/5 μL or systemic 0.058 and 10 μg/kg
Method: Rotarod: A rotarod performance test was used to determine the motor and/or sedative effects of Ang-(1-7) (Rotamex 4/8, Columbus Instruments, Columbus, Ohio, USA). Three days prior to testing, naïve mice were subjected to 5 trials in which they were able to acclimate to the rotating rod (10 revolutions/min). On the day of testing, animals were allowed one trial and then baselined. The amount of time the animal remained on the rod was recorded, with a cutoff time of 120 seconds to prevent exhaustion. Animals were dosed (i.p.) as previously described and reevaluated 15, 30, 60, and 120 minutes post-administration.
To exclude the possibility that Ang-(1-7) administration reduced mobility in order to increase tail withdraw latency, rotarod testing was performed. Naïve animals were trained to walk on a rotating rod for 2 min. After training, animals were injected with Ang-(1-7) by either spinal (0.3 pmol/5 μL) or systemic routes (0.058 and 10 μg/kg).

[3] = In Vitro Serum Half-Life Assay; settings: mouse
Method: (§1) Aliquots were withdrawn at the indicated time intervals and the peptide concentration was determined using HPLC-MS and expressed as a percentage of the initial concentration.

[4] = mouse, serum
Method: as §1

[5] = In vivo serum and CSF concentration after subcutaneous injection
Method: The peptides (10 mg/kg) or vehicle control were individually subcutaneously injected into naïve mice. Serum concentrations were determined every 10 minutes by HPLC-MS using a 20-30 μl blood sample. […] CSF samples were simultaneously withdrawn from the same animals via a microdialysis probe and assayed for the peptide concentration and corrected for basal CSF levels.

[6] = system: BALB/cAnNHsd mice with intramedullary 66.1 cells (CIBP); assay: Established CIBP, acute behavioral testing (flinching/guarding); format: in vivo; settings: for pain behaviors, AT1 or AT2 antagonist administered alone: 0.4 mg/kg i.p.
Method: Animals: Female BALB/cAnNHsd mice (Harlan, Ind., USA) between 15 and 20 g were used in this study. Mice were housed in a climate control room on a 12-hour light/dark cycle and allowed food and water ad libitum. Animals were monitored on days 0, 7, 10, and 14 of the study for clinical signs of rapid weight loss and signs of distress.
All intraperitoneal (i.p.) injections were made at a volume of 10 mL/kg.
Arthrotomy—Intramedullary Implantation of 66.1 Cells: To induce CIBP, an arthrotomy was performed. Briefly, animals were anesthetized with 80 mg/kg ketamine-12 mg/kg xylazine (in a 10 mL/kg volume). The surgical area was shaved and cleaned with 70% ethanol and betadine. The condyles of the right femur were exposed and a burr-hole (0.66 mm) was drilled to create a space for the 66.1 cell inoculation. A 5 μl volume of 66.1 cells (8,000 cells per 1 μl) in MEM (or 5 μl MEM without cells in sham animals) was injected into the intramedullary space of the mouse femora. Proper placement of the injector was confirmed by radiograph (Faxitron X-ray imaging). Holes were sealed with bone cement and the patella reset. Muscle and skin were closed in separate layers with 5-0 vicryl suture and wound autoclips, respectively. Animals were given 8 mg/kg (10 mL/kg volume) gentamicin to prevent infection. Staples were removed 7 days post-surgery.
Acute Behavioral Testing: Fourteen days post-surgery, baseline behaviors of spontaneous flinching/guarding were recorded. Flinching was characterized by the lifting and rapid flexing of the hind paw ipsilateral to femoral inoculation when not associated with walking or other movement. Guarding was characterized by the lifting the inoculated hind limb into a fully retracted position under the torso. The total number of flinches and the time spent guarding 2 min duration was recorded. […] Antagonists were administered 30 minutes prior to Ang-(1-7). Following administration, animals were tested at over a three-hour time course until their pain behaviors returned to baseline

PN-A3: Asp Arg Val Tyr Ile His Pro Ser* (glucosylated), carboxyl terminal NH2 (SEQ ID NO: 8) (DRVYIHPS; glucosylated; C-terminal amide; MOD_RES (8)..(8) Glucosylated-Ser; C-term -NH2)
increase in cell impedance (CI) over the native Ang-(1-7) ([1]; 10 nM): ~2 fold | increase in cell impedance (CI) over the native Ang-(1-7) ([1]; 100 nM): ~2 fold | NO production versus control levels (relative peak fluorescence intensity) [2]: significant elevation of NO over control levels

CC[C@H](C)[C@H](NC(=O)[C@H](Cc1ccc(O)cc1)NC(=O)[C@@H](NC(=O)[C@H](CCCNC(=N)N)NC(=O)[C@@H](N)CC(=O)O)C(C)C)C(=O)N[C@@H](Cc1c[nH]cn1)C(=O)N1CCC[C@H]1C(=O)O [Ang-(1-7), Asp-Arg-Val-Tyr-Ile-His-Pro]
rotarod latencies versus vehicle (naïve mice): No significant differences in rotarod latencies

CC[C@H](C)[C@H](NC(=O)[C@H](Cc1ccc(O)cc1)NC(=O)[C@@H](NC(=O)[C@H](CCCNC(=N)N)NC(=O)[C@@H](N)CC(=O)O)C(C)C)C(=O)N[C@@H](Cc1c[nH]cn1)C(=O)N[C@@H](CO[C@@H]1O[C@H](CO)[C@@H](O[C@@H]2O[C@H](CO)[C@H](O)[C@H](O)[C@H]2O)[C@H](O)[C@H]1O)C(N)=O [Ang 1-6-Ser(OLac)-NH2] (H-DRVYIHS(X2)-NH2)
half-life [3]: 5.8 h

CC[C@H](C)[C@H](NC(=O)[C@H](Cc1ccc(O)cc1)NC(=O)[C@@H](NC(=O)[C@H](CCCNC(=N)N)NC(=O)[C@@H](N)CC(=O)O)C(C)C)C(=O)N[C@@H](Cc1c[nH]cn1)C(=O)N[C@@H](COC1O[C@H](CO)[C@@H](O)[C@H](O)[C@H]1O)C(N)=O (stereo partly drawn) [PN-A5, Ang 1-6-Ser(OGlc)-NH2] (H-DRVYIHS(X1)-NH2)
half-life [4]: 1 h | maximum CSF concentration ([5]; 10 mg/kg subcutaneous, naïve mice, microdialysis, corrected for basal CSF levels): about 400 nM | Cmax ([5]; mouse, serum, sc, 10 mg/kg): ~3.5 µM

Cc1cc(Cn2cnc3c2C[C@@H](C(=O)O)N(C(=O)C(c2ccccc2)c2ccccc2)C3)ccc1N(C)C [PD 123319]
pain behaviors, AT1 or AT2 antagonist administered alone [6]: neither Losartan potassium nor PD 123319 significantly altered pain behaviors | guarding or flinching versus Ang-(1-7) alone ([6]; PD 123319 0.4 mg/kg i.p. 30 minutes prior to Ang-(1-7) 0.058 μg/kg): did not further increase nor decrease guarding or flinching

PN-A4: Asp Arg Val Tyr Ile His Pro Ser** (lactosylated), carboxyl terminal NH2 (SEQ ID NO: 9) (DRVYIHPS; lactosylated; C-terminal amide; MOD_RES (8)..(8) Lactosylated-Ser; C-term -NH2)
increase in cell impedance (CI) over the native Ang-(1-7) ([1]; 100 nM): ~2 fold | NO production versus control levels (relative peak fluorescence intensity) [2]: significant elevation of NO over control levels

CCCCc1nc(Cl)c(CO)n1Cc1ccc(-c2ccccc2-c2nn[nH]n2)cc1 [Losartan potassium]
pain behaviors, AT1 or AT2 antagonist administered alone [6]: neither Losartan potassium nor PD 123319 significantly altered pain behaviors | MPE in reducing flinching ([6]; Losartan potassium 0.4 mg/kg i.p. 30 minutes prior to Ang-(1-7) 0.058 μg/kg, 15 minutes post-administration): 80.56% | maximal possible efficacy (MPE) in reducing guarding ([6]; Losartan potassium 0.4 mg/kg i.p. 30 minutes prior to Ang-(1-7) 0.058 μg/kg, 30 minutes post-administration): 77.527%
